Measurements published in patent US8871900B2, “Fibroblast growth factor (FGF) analogs and uses thereof” (University of Rochester, priority 2008, dated 2014).
Peptide text beside a SMILES is read from it.

Assays:
Cdc42, Rac1, Mapk10, Cfl = assay: Gene expression in irradiated BM cells (Luminex multiplex array); format: cell-based, mouse; details: treatment 20 min after 5 Gy IR, 6 hours, P<0.05
[1] = Plasma endotoxin (LPS) after TBI; format: in vivo, mouse; details: IR mice
Excerpt: This relates with the FGF-P promotion of WBC regeneration. The low endotoxin indicates a low probability of endothelium damage and less consumption of platelet, which promotes the recovery of homeostasis of TBI mice.

BM progenitors = BM progenitors (CD24, CD34) by flow cytometry after in vivo FGF-P; design: species or system mouse; details: in vivo administration following radiation
Excerpt: To determine if the stem cells are better regenerated, freshly harvested BM cells were stained with CD24, CD34 (two critical markers for BM multi-potential progenitors) and TER119 (a marker for reticulcoytes), and then analyzed with flow cytometry. […] This is consistent with the above in vitro data. After IR, there appears a very active generation of BM progenitors, a rebound phenomenon, similar to the intestine crypts that actively regenerate following IR to compensate for lost villi.

[2] = Tail vein bleeding time after 4 Gy TBI; format: in vivo, mouse; details: 10 days after 4 Gy TBI; FGF-P 15 mg/kg daily for 3 days then every other day for 3 times
Excerpt: The bleeding is stopped by coagulant cascade, mainly the platelet aggregation, the vessel contraction and thrombosis which are trigged by the released platelet granules (Francis 2007, Khorana 2005). IR blocks the megakaryocytopoiesis and reduces the thrombocytopoiesis (an imbalance between the synthesis and consuming of coagulant proteins), which leads to a prolonged bleeding time. To determine if FGF-P has any effect on the bleeding time, the a single tail vein at the same anatomy position was cut in same depth and merged into 37° C. warm water, the time between bleeding and stopping was recorded. The test was performed on 10 days after 4 Gy TBI.

[3] = Toxicity of FGF-P (LD50/14 experiments); format: in vivo, mouse (Balb/c)
Experimental: Standard LD50/14 experiments have been performed. Up to 400 mg/kg of FGF-P was injected into Balb/c mice. No obvious signs of illness were observed. […] Thus, even the maximum NOAEL (no observed adverse effect level) could not be found. […] This observation is not surprising since similar observations have been made previously with human FGF-2 in mice (9-14) Likewise, it has been shown that in various disease states the level of FGF in humans is commonly 100 times the normal baseline.
A useful mitigator can be effective even given 8-24 hours IR exposure because of the time required for distribution. Therefore, FGF-P given at 8 hour after 7.1 Gy IR was tested.

[4] = tested on: proliferating crypts of small intestine; assay: Crypt assay of small intestine after sub-TBI (H&E, BrdU, villi length); format: in vivo, mouse (Balb/c, C57BL/6)
Excerpt: Enhanced proliferation of crypts in small intestine: The epithelium of the small intestine has a rapid turnover, renewing every 3-7 days. The stem cells are located ⅓ of the way up the […] and active mitosis can be seen above growing into the villus and below, forming the crypt. There are no definitive markers available to identify the stem cells, and thus the number of these cells in each crypt are unknown. When the bowel is irradiated, the number of crypts remains constant up to a dose just below the LD50/7. Above that dose, there is a log-linear decrease in the number of crypts, usually measured at 3.5 days. […] Data from the crypt assay can be augmented with injection of BrdU. BrdU can be given to animals at one or more times after irradiation to determine the rate of proliferation and rate of elongation of villi.
FGF-P was then repeated daily for 2 days. At 80 hr post-IR, BrdU (120 mg/kg) was injected ip and 4 hours later (about 3.5 days post-IR), the mice were sacrificed and the duodenal, jejunal and ileal segments (3-4 pieces/segment) were harvested, fixed in formalin, processed in paraffin blocks, cut in transverse sections of the full segment circumference (5 μm thick) and stained with H&E or anti-BrdU following the standard immunochemistry procedure (23). The proliferating crypts were defined as containing 10 or more adjacent chromophilic non-Paneth cells and a lumen. The circumference of a transverse cross-section of the intestine was used as a unit. The number of proliferating crypts was counted in each circumference. At least 10 circumferences were scored per mouse and 4-5 mice were used to generate each data point.
The villi length of duodenum, jejunum and ileum was measured using a customized Imaging Pro program.

[5] = tested on: GI Na transport from mucosa to serosa; assay: Electrolyte transport assay with 22Na flux (Ussing chamber); design: species or system mouse; details: after IR
Experimental: FGF-P improves GI function: The absorption of Na coupling with nutrition and blocking of pathogen invasion are the basic function of GI. […] To pin down the mechanism in cell/tissue level, the electrolyte transport assay with ^22Na flux was carried with Ussing chamber. […] Similarly, a “Dilution Potential” experiment was carried out and Goldman-Hodgkin-Katz (GHK) Voltage Equation used to determine relative paracellular permeability.

platelet = assay: Platelet aggregation after 4 Gy TBI; format: in vivo, mouse; details: day 29 after 4 Gy TBI; FGF-P right post-IR daily for 6 day; P<0.05
Excerpt: One of the major functions of platelet is to aggregate on the wounded site as first step to block the bleeding vessel. […] This recovery is statistically different (FIG. 18D P<0.05).

BM cells [6] = assay: BM cell growth in round-bottom 96 well 2 D culture (CyQUANT); format: cell-based, mouse (Balb/c); details: FGF-P 500 ng/ml
Excerpt: (§1) Survival of ARS depends on rapid reconstitution of hematopoiesis after IR-induced myelosuppression. […] However, the timing and mechanism of effect on BM stem cells is unknown. Also unclear are the number of FGFRs on hematopoietic stem cells (HSCs) and their role in reconstitution after IR. […] To characterize the effects of FGF-P on BM, the study approach was to obtain fresh BM (including both HSCs and MSCs) from Balb/c mice, and culture it under varying conditions (3 D culture or 2 D round-bottom well) in triplicate for 1-3 weeks. The BM cells were stimulated with FGF-P at different doses (as test) or with EPO, TPO, GM-CSF or native FGF2 (as a positive control). The cultures were examined using several methods including colony count, photography, CyQUANT® assay and ^3H-TdR incorporation.

BM cells [7] = assay: BM colony formation in MethoCult 3 D culture; format: cell-based, mouse (Balb/c)
Excerpt: as §1

Structure (SMILES): CC(C)C[C@H](NC(=O)[C@H](C)NC(=O)[C@@H](NC(=O)[C@H](Cc1ccc(O)cc1)NC(=O)[C@H](Cc1c[nH]c2ccccc12)NC(=O)[C@H](CO)NC(=O)[C@H](CO)NC(=O)[C@H](Cc1ccc(O)cc1)NC(=O)[C@H](CCCCN)NC(=O)[C@H](CCCNC(=N)N)NC(=O)[C@H](CO)NC(=O)[C@H](CCCNC(=N)N)NC(=O)[C@H](Cc1ccc(O)cc1)NC(=O)[C@@H](N)CS)C(C)C)C(=O)N[C@@H](CCCCN)C(=O)N[C@@H](CCCNC(=N)N)C(=O)N[C@@H](CS)C(=O)O [FGF-P, CYRSRKYSSWYVALKRC] (H-CYRSRKYSSWYVALKRC-OH; N-terminus and C-terminus assumed)
- expression of Cdc42 (Cdc42, Rac1, Mapk10, Cfl): reversed the IR-suppressed expression
- expression of Cfl (cofilin 1) (Cdc42, Rac1, Mapk10, Cfl): suppressed towards normal
- expression of Mapk10 (Cdc42, Rac1, Mapk10, Cfl): suppressed towards normal
- expression of Rac1 (Cdc42, Rac1, Mapk10, Cfl): reversed the IR-suppressed expression
- plasma level of endotoxin (LPS) [1]: reduced the LPS level
- number of BM progenitors (CD24, CD34) (BM progenitors): increased the number of BM progenitors following radiation
- bleeding time [2]: shorter bleeding time
- body weight ([3]; Balb/c mice, up to 400 mg/kg): body weight did not decrease
- dose tolerated well without any signs of sickness ([3]; mice): up to 4 gram/kg
- NOAEL at 14 days ([3]; mouse, in vivo, Balb/c mice, LD50/14 experiments, read-out: injected dose with no obvious signs of illness (maximum NOAEL could not be found)): ≤ 400 mg/kg
- numbers of proliferating crypts in the bowel ([4]; 10.5 Gy sub-TBI, about 3.5 days post-IR, FGF-P 2 mg/kg im, repeated daily for 2 days): increased
- crypt survival ([4]; 10.5 Gy sub-TBI, FGF-P 2 mg/kg im): approximately doubles crypt survival
- proliferating crypts, BrdU staining method ([4]; 12 Gy, P<0.05): A similar result was obtained using the BrdU staining method
- number of proliferating crypts ([4]; 12 Gy, duodenum, jejunum, ileum, P<0.05): higher number of proliferating crypts in duodenum, jejunum and ileum
- crypt numbers in the ileum ([4]; Balb/c, 3.5 days after 12 Gy, FGF-P given after irradiation): Higher numbers of crypts
- villi length ([4]; C57BL/6, 16 Gy sub-TBI, P<0.05): better preserved villi length in the duodenum and jejunum
- crypt numbers ([4]; C57BL/6, doses as high as 16 Gy sub-TBI): improved crypt numbers in all sections of C57BL/6 small bowel
- Na transport from mucosa to serosa [5]: reversed
- platelet aggregation (platelet): recovered towards normal
- growth of BM cells (BM cells [6]): stimulated the growth of BM cells in a similar pattern as TPO, EPO and GM-CSF
- colony formation of BM cells (BM cells [7]): enhanced colony formation of BM cells in a dose dependent manner
